Results from patent publication US11078194B2, “Salt form and crystal form serving as FGFR and VEGFR inhibitor compounds, and preparation method therefor” (HARBIN ZHENBAO PHARMACEUTICAL CO., LTD., priority 2017, dated 2021).

Tests used:
FGFR1 = target: T1, FGFR1 (Homo sapiens, UniProt P11362); experiment: Z'-LYTE Detection Kinase Assay, in vitro enzyme activity test; type: biochemical; details: 0.6 nM FGFR1, 10 μm ATP, 23° C., 60 minutes
T1 construct: purchased Invitrogen PV4105
Method: The enzyme activity was detected by Z′-LYTE™ Detection Kinase Assay, and the IC50 value of the compound was used as an indicator to evaluate the inhibitory effect of the compound against FGFR1.
FGFR1 (Invitrogen #PV4105)
Reaction buffer solution: 50 mM Hepes (pH 7.5), 10 mM MgCl2, 1 mM EGTA, 0.01% Brij-35, 1 mM DTT, 2 mM MnCl2;
0.6 nM FGFR1, 2 μm Tyr^4 peptide and 10 μm ATP in reaction buffer solution (50 mM Hepes, pH 7.5, 10 mM MgCl2, 0.01% BRU-35, 1 mM EGTA, 4 mM MnCl2, 2 mM DTT).
a. Diluting the compound with DMSO to 10 mM, 3-fold dilution, 11 gradients, two duplicate wells;
b. Transferring compound diluted with a ratio of 1:25 to the middle plate at Bravo Automatic Liquid Station. Then transferring 2.5 uL to the reaction plate to ensure the final DMSO concentration to be 1%;
c. Transferring 5 μL enzyme/substrate buffer to each well;
d. Adding ATP solution to each well sequentially with Multidrop liquid workstation;
e. Centrifuging at 1000 rpm for 1 minute;
f. Placing the reaction plate in a 23° C. incubator, and allowing to react for 60 minutes.
a. Preparing a mixture of Development regent B and Development Buffer with a ratio of 1:128;
b. Adding 5 uL to each well and centrifuging at 1000 rpm for 1 minute;
c. Placing the reaction plate into an incubator (23° C.) for 90 minutes after centrifugation, taking it out, and reading it in the Envision (Perkin Elmer) plate reader […]

[1] = test system: FGFR1/2 Highly Expressed Patient-derived Liver Tumor Transplantation Model; experiment: Tumor growth inhibition (TGI) analysis; type: in vivo, mice; details: 5 mg/kg, BID
Method: The evolutionary growth potential of tumors was evaluated by the relationship between tumor volume and time. The long axis (L) and short axis (W) of the subcutaneous tumor were measured twice a week by the caliper and the tumor volume (TV) was calculated by the formula ((L×W^2)/2). TGI was calculated from the difference between the median tumor volume in the solvent group mice and the median tumor volume in the drug group mice, expressed as a percentage counting for the median tumor volume in the solvent control group, calculated by the following formula: % TGI=((median tumor volume (control)−median tumor volume (dosing group))/median tumor volume (control group))×100
The original statistical analysis was done by repeating the analysis of variance, followed by post-hoc Scheffe's test method for multiple comparisons, with solvent alone (0.5% methylcellulose+0.2% Tween in water) as negative control.

[2] = Solid stability test of crystal form G, crystal form I and crystal form J (HPLC content, total impurities, XRPD, appearance); type: physicochemical; details: for thermal stability and stability under accelerated conditions: conclusion of influencing factors and accelerated tests
Method: About 10 mg of crystal form G, crystal form I, or crystal form J were weighed accurately, and placed on the bottom of a 40 mL glass sample bottle and spread into a thin layer. For an open sample, the bottle mouth thereof was sealed with aluminum foil poked with pinholes to ensure that the sample can fully contact with the ambient air. For a sealed sample, the bottle mouth thereof was sealed with a bottle cap, and wrapped with a sealing film. Two duplicate samples were weighed at each time point of each condition in parallel, and an appropriate amount of sample (not weighed) was taken additionally for XRPD detection. The prepared samples were placed under each condition and were sampled and analyzed when the time point was arrived. On 0th day, 5 control samples were weighed in parallel and stored in a refrigerator at −20° C. until analysis. The samples subjected to light irradiation were prepared by the same method, and placed on the bottom of a 40 mL glass sample bottle. The glass bottle was left open and placed in the upright position in a light irradiation box. In addition, two samples in an appropriate amount were taken as samples in dark, and the glass bottles containing the same were left open, put in the upright position, and wrapped with tin foil, and irradiated with a total luminance of 1.2×10^6Lux.hr and a near ultraviolet power of 200 w.hr/m^2. After irradiation, the samples was stored in the refrigerator at −20° C. for analysis.
The compounds were placed under the following conditions and sampled at different time points to detect the physical properties, and the content and total impurities were analyzed by HPLC.

[3] = Hygroscopicity test by dynamic vapor sorption (DVS); type: physicochemical; details: 25±1° C. and 80±2% RH; for hygroscopicity evaluation: scales in the 11th table
Method: Instrument model: SMS DVS Advantage dynamic vapor sorption analyzer Detection conditions: samples (10 mg to 15 mg) were placed in a DVS sample tray for detection. The detailed DVS parameters are as follows: Temperature: 25° C. Balance: dm/dt=0.01%/min (shortest: 10 min, longest: 180 min) Drying: 120 minutes at 0% RH RH (%) gradient for testing: 10% RH (%) range for gradient testing: 0%-90%-0% The hygroscopicity was evaluated using the following scales: [table] 10 to 15 mg of the crystal form I of the compound of formula (III) was taken and placed in a DVS sample tray for testing. 10 to 15 mg of the crystal form J of the compound of formula (IV) was taken and placed in a DVS sample tray for testing.

[4] = Accelerated test (40° C./relative humidity 75%, open), 1st month
[5] = Accelerated test (40° C./relative humidity 75%, open), 2nd month
[6] = Accelerated test (40° C./relative humidity 75%, open), 3rd month
[7] = Accelerated test (40° C./relative humidity 75%, open), 10th day
[8] = Accelerated test (60° C./relative humidity 75%, open), 1st month
[9] = Accelerated test (60° C./relative humidity 75%, open), 2nd month
[10] = Accelerated test (60° C./relative humidity 75%, open), 3rd month
[11] = Accelerated test (60° C./relative humidity 75%, open), 10th day
[12] = High humidity (Room temperature/relative humidity 92.5%, open), 5th day
[13] = High humidity (Room temperature/relative humidity 92.5%, open), 10th day
[14] = High temperature (60° C., open), 5th day
[15] = High temperature (60° C., open), 10th day
[16] = Light irradiation (1.2 × 10^6 Lux·hr, near ultraviolet 200 w·hr/m^2, open), irradiated sample
[17] = Light irradiation test, Dark sample
[18] = Accelerated test (40 C./relative humidity 75%, open), 1st month
[19] = Accelerated test (40 C./relative humidity 75%, open), 2nd month
[20] = Accelerated test (40 C./relative humidity 75%, open), 3rd month
[21] = Accelerated test (40 C./relative humidity 75%, open), 10th day
[22] = Accelerated test (60 C./relative humidity 75%, open), 1st month
[23] = Accelerated test (60 C./relative humidity 75%, open), 2nd month
[24] = Accelerated test (60 C./relative humidity 75%, open), 3rd month
[25] = Accelerated test (60 C./relative humidity 75%, open), 10th day
[26] = Light irradiation (total illuminance 1.2 × 10^6 Lux·hr/near ultraviolet 200 w·hr/m^2, open), light irradiation sample

T1 sequence (P11362 22-822): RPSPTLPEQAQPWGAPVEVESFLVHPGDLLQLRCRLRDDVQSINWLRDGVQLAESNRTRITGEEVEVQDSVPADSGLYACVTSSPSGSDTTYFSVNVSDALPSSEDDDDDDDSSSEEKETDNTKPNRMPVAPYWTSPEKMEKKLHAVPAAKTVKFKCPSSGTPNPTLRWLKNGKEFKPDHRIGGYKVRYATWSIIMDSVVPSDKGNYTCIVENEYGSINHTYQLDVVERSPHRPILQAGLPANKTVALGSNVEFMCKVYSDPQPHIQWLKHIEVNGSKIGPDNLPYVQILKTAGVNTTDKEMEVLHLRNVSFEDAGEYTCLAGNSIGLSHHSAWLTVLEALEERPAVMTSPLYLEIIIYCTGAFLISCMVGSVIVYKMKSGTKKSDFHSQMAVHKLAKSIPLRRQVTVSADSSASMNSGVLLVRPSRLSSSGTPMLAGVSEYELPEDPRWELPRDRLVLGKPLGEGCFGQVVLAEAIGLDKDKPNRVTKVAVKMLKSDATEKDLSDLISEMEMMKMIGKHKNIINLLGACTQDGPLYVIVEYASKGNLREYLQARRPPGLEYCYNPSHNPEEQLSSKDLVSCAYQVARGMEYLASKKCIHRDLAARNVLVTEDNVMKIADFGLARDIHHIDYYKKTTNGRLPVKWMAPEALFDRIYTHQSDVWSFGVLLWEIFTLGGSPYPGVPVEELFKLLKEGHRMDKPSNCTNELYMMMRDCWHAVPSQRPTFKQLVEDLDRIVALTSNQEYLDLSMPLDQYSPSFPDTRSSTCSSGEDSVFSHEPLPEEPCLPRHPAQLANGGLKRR

## C[C@@H](Oc1ccc2[nH]nc(/C=C(\F)c3ccc(CNC4CCOCC4)nc3)c2c1)c1c(Cl)cncc1Cl [Embodiment 1]
FGFR1
  IC50: ≤ 0.01 µM
[1]
  TGI % (last administration): 85%

## C[C@@H](Oc1ccc2[nH]nc(/C=C(\F)c3ccc(CNC4CCOCC4)nc3)c2c1)c1c(Cl)cncc1Cl.O=C(O)CC(O)(CC(=O)O)C(=O)O [crystal form I]
[2]; 0th day
  Appearance: Earth yellow
  Content (%): 100.00%
  Crystal form (XRPD): form I
  Total impurities (%): 1.91%
[2]; [4]
  Appearance: Earth yellow
  Content (%): 99.83%
  Crystal form (XRPD): form I
  Total impurities (%): 1.88%
[2]; [5]
  Appearance: Earth yellow
  Content (%): 100.06%
  Crystal form (XRPD): form I
  Total impurities (%): 1.82%
[2]; [6]
  Appearance: Earth yellow
  Content (%): 99.32%
  Crystal form (XRPD): form I
  Total impurities (%): 1.86%
[2]; [7]
  Appearance: Earth yellow
  Content (%): 99.93%
  Crystal form (XRPD): form I
  Total impurities (%): 1.85%
[2]; [8]
  Appearance: Earth yellow
  Content (%): 99.95%
  Crystal form (XRPD): form I
  Total impurities (%): 1.74%
[2]; [9]
  Appearance: Earth yellow
  Content (%): 98.46%
  Crystal form (XRPD): form I
  Total impurities (%): 1.79%
[2]; [10]
  Appearance: Earth yellow
  Content (%): 97.31%
  Crystal form (XRPD): form I
  Total impurities (%): 1.83%
[2]; [11]
  Appearance: Earth yellow
  Content (%): 100.19%
  Crystal form (XRPD): form I
  Total impurities (%): 1.85%
[2]; [12]
  Appearance: Earth yellow
  Content (%): 99.10%
  Crystal form (XRPD): form I
  Total impurities (%): 1.88%
[2]; [13]
  Appearance: Earth yellow
  Content (%): 99.92%
  Crystal form (XRPD): form I
  Total impurities (%): 1.73%
[2]; [14]
  Appearance: Earth yellow
  Content (%): 100.40%
  Crystal form (XRPD): form I
  Total impurities (%): 1.93%
[2]; [15]
  Appearance: Earth yellow
  Content (%): 100.26%
  Crystal form (XRPD): form I
  Total impurities (%): 1.83%
[2]; [16]
  Appearance: Earth yellow
  Content (%): 97.37%
  Crystal form (XRPD): form I
  Total impurities (%): 2.35%
[2]; [17]
  Appearance: Earth yellow
  Content (%): 99.42%
  Crystal form (XRPD): form I
  Total impurities (%): 1.85%
[2]
  thermal stability and stability under accelerated conditions: excellent
  stability under dark conditions: good stability
  impurities generated under light irradiation conditions: slight impurities
[3]
  hygroscopic weight gain ΔW: 2.134%
  hygroscopicity evaluation: hygroscopic

## C[C@@H](Oc1ccc2[nH]nc(/C=C(\F)c3ccc(CNC4CCOCC4)nc3)c2c1)c1c(Cl)cncc1Cl.O=C(O)C[C@H](O)C(=O)O [crystal form J]
[2]; 0th day, control
  Appearance: Earth yellow
  Crystal form (XRPD): form J
[2]; 0th day, control, HPLC
  Content (%): 100.00%
  Total impurities (%): 1.42%
[2]; [18]
  Appearance: Earth yellow
  Content (%): 99.31%
  Crystal form (XRPD): form J
  Total impurities (%): 1.36%
[2]; [19]
  Appearance: Earth yellow
  Content (%): 99.40%
  Crystal form (XRPD): form J
  Total impurities (%): 1.20%
[2]; [20]
  Appearance: Earth yellow
  Content (%): 98.62%
  Crystal form (XRPD): form J
  Total impurities (%): 1.20%
[2]; [21]
  Appearance: Earth yellow
  Content (%): 99.44%
  Crystal form (XRPD): form J
  Total impurities (%): 1.33%
[2]; [22]
  Appearance: Earth yellow
  Content (%): 97.07%
  Crystal form (XRPD): form J
  Total impurities (%): 1.43%
[2]; [23]
  Appearance: Earth yellow
  Content (%): 97.22%
  Crystal form (XRPD): form J
  Total impurities (%): 1.48%
[2]; [24]
  Appearance: Earth yellow
  Content (%): 97.18%
  Crystal form (XRPD): form J
  Total impurities (%): 1.53%
[2]; [25]
  Appearance: Earth yellow
  Content (%): 99.05%
  Crystal form (XRPD): form J
  Total impurities (%): 1.36%
[2]; [12]
  Appearance: Earth yellow
  Content (%): 99.06%
  Crystal form (XRPD): form J
  Total impurities (%): 1.31%
[2]; [13]
  Appearance: Earth yellow
  Content (%): 100.58%
  Crystal form (XRPD): form J
  Total impurities (%): 1.32%
[2]; [14]
  Appearance: Earth yellow
  Content (%): 98.83%
  Crystal form (XRPD): form J
  Total impurities (%): 1.39%
[2]; [15]
  Appearance: Earth yellow
  Content (%): 99.11%
  Crystal form (XRPD): form J
  Total impurities (%): 1.46%
[2]; [26]
  Appearance: Earth yellow
  Content (%): 96.41%
  Crystal form (XRPD): form J
  Total impurities (%): 1.90%
[2]; [17]
  Appearance: Earth yellow
  Content (%): 98.04%
  Crystal form (XRPD): form J
  Total impurities (%): 1.30%
[2]
  thermal stability and stability under accelerated conditions: excellent
  stability under dark conditions: good stability
  impurities generated under light irradiation conditions: slight impurities
[3]
  hygroscopic weight gain ΔW: 5.227%
  hygroscopicity evaluation: hygroscopic
